Results: US12655116B2, “Substituted isophthalic acid diamides” (Bayer Aktiengesellschaft, priority 2020, dated 2026)

Assays:
ECHCG [1] = experiment: Pre-emergence herbicidal action against ECHCG; assay type: in vivo, Echinochloa crus-galli; details: Echinochloa crus-galli, 504 h, 320 g/ha
Procedure, shortened: (§1)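 Seeds sown in sandy loam, soil-covered; compound sprayed on soil surface pre-emergence. Application: WP/EC, 600–800 l/ha, 0.2% wetting agent. Readout: visual % damage at 3 weeks.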

AVEFA [2] = experiment: Post-emergence herbicidal action against AVEFA; assay type: in vivo, Avena fatua; details: Avena fatua, 504 h, 80 g/ha, visual assessment about 3 weeks after treatment, 100% = plants have died, 0% = like control plants
Procedure, shortened: (§2)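 Sandy loam, greenhouse; treatment 2–3 weeks after sowing, one-leaf stage. Aqueous suspension or emulsion from WP/EC sprayed on foliage (600–800 l/ha, 0.2% wetting agent). Readout: visual % action, ~3 weeks.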

VIOTR [3] = experiment: Post-emergence herbicidal action against VIOTR; assay type: in vivo, Viola tricolor; details: Viola tricolor, 504 h
Procedure, shortened: as §2

STEME [4] = experiment: Post-emergence herbicidal action against STEME; assay type: in vivo, Stellaria media; details: Stellaria media, 504 h, 80 g/ha
Procedure, shortened: as §2

MATIN = experiment: Pre-emergence herbicidal action against MATIN; assay type: in vivo, Matricaria inodora; details: Tripleurospermum inodorum, 504 h, dosage 320 g/ha
Procedure, shortened: as §1

STEME [5] = experiment: Pre-emergence herbicidal action against STEME; assay type: in vivo, Stellaria media; details: Stellaria media, 504 h, dosage 320 g/ha
Procedure, shortened: as §1

HORMU [6] = experiment: Post-emergence herbicidal action against HORMU; assay type: in vivo, Hordeum murinum; details: Hordeum murinum, 504 h, dosage 80 g/ha
Procedure, shortened: as §2

ALOMY [7] = experiment: Pre-emergence herbicidal action against ALOMY; assay type: in vivo, Alopecurus myosuroides; details: Alopecurus myosuroides, pre-emergence, 504 h; 320 g/ha; scored visually after 3 weeks, 100% = plants have died, 0% = like control plants
Procedure, shortened: as §1

HORMU [8] = experiment: Pre-emergence herbicidal action against HORMU; assay type: in vivo, Hordeum murinum; details: Hordeum murinum, 504 h; 320 g/ha, pre-emergence
Procedure, shortened: as §1

ABUTH [9] = experiment: Pre-emergence herbicidal action against ABUTH; assay type: in vivo, Abutilon theophrasti; details: Abutilon theophrasti, 504 h
Procedure, shortened: as §1

ABUTH [10] = experiment: Post-emergence herbicidal action against ABUTH; assay type: in vivo, Abutilon theophrasti; details: Abutilon theophrasti, 504 h, visual assessment about 3 weeks after treatment vs untreated controls
Procedure, shortened: as §2

AMARE [11] = experiment: Post-emergence herbicidal action against AMARE; assay type: in vivo, Amaranthus retroflexus; details: Amaranthus retroflexus, 504 h, 80 g/ha, visual assessment about 3 weeks after treatment, 100% = plants have died, 0% = like control plants
Procedure, shortened: as §2

CYPES [12] = experiment: Post-emergence herbicidal action against CYPES; assay type: in vivo, Cyperus esculentus; details: 80 g/ha, visual assessment about 3 weeks after treatment, 100% = plants have died, 0% = like control plants
Protocol: Seeds of monocotyledonous and dicotyledonous weed and crop plants are laid out in sandy loam soil in wood-fiber pots, covered with soil and cultivated in a greenhouse under good growth conditions. 2 to 3 weeks after sowing, the test plants are treated at the one-leaf stage. The compounds of the invention, formulated in the form of wettable powders (WP) or as emulsion concentrates (EC), are then sprayed onto the green parts of the plants in the form of an aqueous suspension or emulsion at a water application rate equivalent to 600 to 800 l/ha, with addition of 0.2% wetting agent. After the test plants have been left to stand in the greenhouse under optimal growth conditions for about 3 weeks, the action of the preparations is assessed visually in comparison to untreated controls (herbicidal action in percent (%): 100% activity=the plants have died, 0% activity=like control plants). […] The tables below illustrate, in an illustrative manner, the post-emergence herbicidal action of the compounds of the invention, the herbicidal activity being stated in percent.

AMARE [13] = experiment: Pre-emergence herbicidal action against AMARE; assay type: in vivo, Amaranthus retroflexus; details: Amaranthus retroflexus, 504 h, 100% = plants have died, 0% = like control plants
Procedure, shortened: as §1

VERPE [14] = experiment: Pre-emergence herbicidal action against VERPE; assay type: in vivo, Veronica persica; details: Veronica persica, 504 h, dosage 320 g/ha
Procedure, shortened: as §1

SETVI [15] = experiment: Post-emergence herbicidal action against SETVI; assay type: in vivo, Setaria viridis; details: Setaria viridis, 504 h
Procedure, shortened: as §2

VERPE [16] = experiment: Post-emergence herbicidal action against VERPE; assay type: in vivo, Veronica persica; details: Veronica persica, 504 h
Procedure, shortened: as §2

SETVI [17] = experiment: Pre-emergence herbicidal action against SETVI; assay type: in vivo, Setaria viridis; details: Setaria viridis, 504 h, dosage 320 g/ha
Procedure, shortened: as §1

CYPES [18] = experiment: Pre-emergence herbicidal action against CYPES; assay type: in vivo; details: Cyperus esculentus, 504 h
Source text: Seeds of monocotyledonous and dicotyledonous weed plants and crop plants are laid out in sandy loam soil in wood-fiber pots and covered with soil. The compounds of the invention, formulated in the form of wettable powders (WP) or as emulsion concentrates (EC), are then applied to the surface of the covering soil in the form of an aqueous suspension or emulsion at a water application rate equivalent to 600 to 800 l/ha, with addition of 0.2% wetting agent. After the treatment, the pots are placed in a greenhouse and kept under good growth conditions for the trial plants. The damage to the test plants is scored visually after a test period of 3 weeks by comparison with untreated controls (herbicidal activity in percent (%): 100% activity=the plants have died, 0% activity=like control plants). […] The tables below illustrate, in an illustrative manner, the post-emergence herbicidal action of the compounds of the invention, the herbicidal activity being stated in percent.

AVEFA [19] = experiment: Pre-emergence herbicidal action against AVEFA; assay type: in vivo, Avena fatua; details: Avena fatua, pre-emergence, 504 h; 320 g/ha; scored visually after 3 weeks, 100% = plants have died, 0% = like control plants
Procedure, shortened: as §1

ECHCG [20] = experiment: Post-emergence herbicidal action against ECHCG; assay type: in vivo, Echinochloa crus-galli; details: Echinochloa crus-galli, 504 h, dosage 80 g/ha
Procedure, shortened: as §2

ALOMY [21] = experiment: Post-emergence herbicidal action against ALOMY; assay type: in vivo, Alopecurus myosuroides; details: Alopecurus myosuroides, 504 h, dosage 80 g/ha, visual assessment about 3 weeks after treatment vs untreated controls
Procedure, shortened: as §2

VIOTR [22] = experiment: Pre-emergence herbicidal action against VIOTR; assay type: in vivo, Viola tricolor; details: Viola tricolor, 504 h, dosage 320 g/ha
Procedure, shortened: as §1

With Cc1nnc(NC(=O)c2ccc(C(F)(F)F)c(C(N)=O)c2Cl)o1 [Example 6-253] the pest or weed control at 320 g/ha (ECHCG [1]) was 100%, the pest or weed control at 80 g/ha (AVEFA [2]) was 80% and the pest or weed control at 20 g/ha (VIOTR [3]; 20 g/ha) was 80%. For the same compound, the pest or weed control at 80 g/ha (VIOTR [3]; 80 g/ha) was 80%, the pest or weed control at 80 g/ha (STEME [4]) was 90% and the pest or weed control at 320 g/ha (MATIN) was 100%. It also gave a pest or weed control at 320 g/ha (STEME [5]) of 100%, a pest or weed control at 80 g/ha (HORMU [6]) of 90% and a pest or weed control at 320 g/ha (ALOMY [7]) of 90%. The pest or weed control at 320 g/ha (HORMU [8]) was 90%, the pest or weed control at 80 g/ha (ABUTH [9]; 80 g/ha, scored visually after 3 weeks vs untreated controls (100% = plants have died, 0% = like control plants)) was 90% and the pest or weed control at 320 g/ha (ABUTH [9]; Dosage: 320 g/ha, scored visually after 3 weeks, 100% = plants have died, 0% = like control plants) was 100%. For the same compound, the pest or weed control at 5 g/ha (ABUTH [10]; dosage 5 g/ha) was 100%, the pest or weed control at 20 g/ha (ABUTH [10]; dosage 20 g/ha) was 100% and the pest or weed control at 80 g/ha (ABUTH [10]; dosage 80 g/ha) was 100%. The pest or weed control at 80 g/ha (AMARE [11]) was 100%, the “Post-emergence action at 80 g/ha against CYPES in %” value (CYPES [12]) was 80% and the pest or weed control at 80 g/ha (AMARE [13]; 80 g/ha, scored visually after 3 weeks vs untreated controls) was 80%. The pest or weed control at 320 g/ha (AMARE [13]; 320 g/ha, scored visually after 3 weeks) was 90%, the pest or weed control at 320 g/ha (VERPE [14]) was 100% and the pest or weed control at 20 g/ha (SETVI [15]; dosage 20 g/ha) was 90%. The pest or weed control at 80 g/ha (SETVI [15]; dosage 80 g/ha) was 100%, the pest or weed control at 20 g/ha (VERPE [16]; 20 g/ha) was 80% and the pest or weed control at 80 g/ha (VERPE [16]; 80 g/ha) was 90%. It also gave a pest or weed control at 320 g/ha (SETVI [17]) of 100%, a pest or weed control at 20 g/ha (CYPES [18]; 20 g/ha, scored visually after 3 weeks, 100% = plants have died, 0% = like control plants) of 80% and a pest or weed control at 80 g/ha (CYPES [18]; 80 g/ha, scored visually after 3 weeks, 100% = plants have died, 0% = like control plants) of 90%. The pest or weed control at 320 g/ha (CYPES [18]; 320 g/ha) was 100%, the pest or weed control at 320 g/ha (AVEFA [19]) was 90% and the pest or weed control at 80 g/ha (ECHCG [20]) was 90%. The pest or weed control at 80 g/ha (ALOMY [21]) was 80% and the pest or weed control at 320 g/ha (VIOTR [22]) was 100%.
